Key:
Test in all cases: Indoor herbicide activity determination, Seed Treatment; pre-emergence (soil spray)
Type in all cases: in vivo
Eclipta prostrata = conditions: read-out: Herbicidal activities (inhibition rate) Eclipta prostrata; for inhibition at 120 g/ha: 120 g a.i./ha; for inhibition at 60 g/ha: 60 g a.i./ha
Method in brief: (§1)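 Weed seeds sown in 7 cm pots of sandy nutrient soil (pH 6.1, 1% organic matter), kept 24 h in a constant-temperature lit room, then soil sprayed by traveling spray tower (flow 390 mL/min). Fresh-weight inhibition % versus untreated controls scored 21 days later.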

Alopecurus myosuroides = system: Alopecurus myosuroides
Method in brief: as §1

Digitaria sanguinalis = conditions: read-out: Herbicidal activities (inhibition rate) Digitaria sanguinalis; for inhibition at 120 g/ha: 120 g a.i./ha; for inhibition at 60 g/ha: 60 g a.i./ha
Method in brief: as §1

Cyperus iria = conditions: read-out: Herbicidal activities (inhibition rate) Cyperus iria; for inhibition at 120 g/ha: 120 g a.i./ha; for inhibition at 60 g/ha: 60 g a.i./ha
Method in brief: as §1

Alopecurus japonicus = system: Alopecurus japonicus
Method in brief: as §1

Eleusine indica = system: Eleusine indica
Method in brief: as §1

Leptochloa chinensis = system: Leptochloa chinensis
Method in brief: as §1

Aegilops tauschii = conditions: read-out: Herbicidal activities (inhibition rate) Aegilops tauschii; for inhibition at 120 g/ha: 120 g a.i./ha; for inhibition at 60 g/ha: 60 g a.i./ha
Method in brief: as §1

Lolium multiflorum = system: Lolium multiflorum
Method in brief: as §1

In the case of C=CC1(C(=O)N[C@H]2CO[C@@H](C(=O)OC)C2)CC(c2cc(F)cc(OC(F)(F)F)c2)=NO1 (mixture of isomers) [I-369], the inhibition at 120 g/ha (Eclipta prostrata) is reported as 40 to 60%, the “Herbicidal activities, Alopecurus myosuroides (inhibition rate class)” value (Alopecurus myosuroides; Dosage 240 g a.i./ha) is reported as “A (A indicates that the inhibition rate was greater than or equal to 80% to 100%)” and the inhibition at 120 g/ha (Digitaria sanguinalis) is reported as 60 to 80%. The inhibition at 120 g/ha (Cyperus iria) was 60 to 80%, the “Herbicidal activities, Alopecurus japonicus (inhibition rate class)” value (Alopecurus japonicus; Dosage 240 g a.i./ha) was “A (A indicates that the inhibition rate was greater than or equal to 80% to 100%)” and the “Herbicidal activities, Eleusine indica (inhibition rate class)” value (Eleusine indica; Dosage 240 g a.i./ha) was “A (A indicates that the inhibition rate was greater than or equal to 80% to 100%)”. For the same compound, the “Herbicidal activities, Leptochloa chinensis (inhibition rate class)” value (Leptochloa chinensis; Dosage 240 g a.i./ha) was “A (A indicates that the inhibition rate was greater than or equal to 80% to 100%)”, the inhibition at 120 g/ha (Aegilops tauschii) was 80 to 100% and the “Herbicidal activities, Lolium multiflorum (inhibition rate class)” value (Lolium multiflorum; Dosage 240 g a.i./ha) was “A (A indicates that the inhibition rate was greater than or equal to 80% to 100%)”.

For C=CC1(C(=O)N[C@H]2CO[C@@H](C(=O)OC)C2)CC(c2cc(F)cc(OC(F)F)c2)=NO1 (mixture of isomers) [I-370], the inhibition at 120 g/ha (Eclipta prostrata) was 60 to 80%, the “Herbicidal activities, Alopecurus myosuroides (inhibition rate class)” value (Alopecurus myosuroides; Dosage 240 g a.i./ha) was “A (A indicates that the inhibition rate was greater than or equal to 80% to 100%)” and the inhibition at 120 g/ha (Digitaria sanguinalis) was 60 to 80%. The inhibition at 120 g/ha (Cyperus iria) was 80 to 100%, the “Herbicidal activities, Alopecurus japonicus (inhibition rate class)” value (Alopecurus japonicus; Dosage 240 g a.i./ha) was “A (A indicates that the inhibition rate was greater than or equal to 80% to 100%)” and the “Herbicidal activities, Eleusine indica (inhibition rate class)” value (Eleusine indica; Dosage 240 g a.i./ha) was “A (A indicates that the inhibition rate was greater than or equal to 80% to 100%)”. For the same compound, the “Herbicidal activities, Leptochloa chinensis (inhibition rate class)” value (Leptochloa chinensis; Dosage 240 g a.i./ha) was “A (A indicates that the inhibition rate was greater than or equal to 80% to 100%)”, the inhibition at 120 g/ha (Aegilops tauschii) was 80 to 100% and the “Herbicidal activities, Lolium multiflorum (inhibition rate class)” value (Lolium multiflorum; Dosage 240 g a.i./ha) was “A (A indicates that the inhibition rate was greater than or equal to 80% to 100%)”.

For C=CC1(C(=O)N[C@H]2CO[C@@H](C(=O)OC)C2)CC(c2cc(Cl)cc(C(F)(F)F)c2)=NO1 (mixture of isomers) [I-371], the inhibition at 120 g/ha (Eclipta prostrata) was 40 to 60%, the “Herbicidal activities, Alopecurus myosuroides (inhibition rate class)” value (Alopecurus myosuroides; Dosage 240 g a.i./ha) was “A (A indicates that the inhibition rate was greater than or equal to 80% to 100%)” and the inhibition at 120 g/ha (Digitaria sanguinalis) was 60 to 80%. For the same compound, the inhibition at 120 g/ha (Cyperus iria) was 60 to 80%, the “Herbicidal activities, Alopecurus japonicus (inhibition rate class)” value (Alopecurus japonicus; Dosage 240 g a.i./ha) was “A (A indicates that the inhibition rate was greater than or equal to 80% to 100%)” and the “Herbicidal activities, Eleusine indica (inhibition rate class)” value (Eleusine indica; Dosage 240 g a.i./ha) was “A (A indicates that the inhibition rate was greater than or equal to 80% to 100%)”. The “Herbicidal activities, Leptochloa chinensis (inhibition rate class)” value (Leptochloa chinensis; Dosage 240 g a.i./ha) was “A (A indicates that the inhibition rate was greater than or equal to 80% to 100%)”, the inhibition at 120 g/ha (Aegilops tauschii) was 80 to 100% and the “Herbicidal activities, Lolium multiflorum (inhibition rate class)” value (Lolium multiflorum; Dosage 240 g a.i./ha) was “A (A indicates that the inhibition rate was greater than or equal to 80% to 100%)”.

In the case of C=CC1(C(=O)N[C@H]2CO[C@@H](C(=O)OC)C2)CC(c2cc(Cl)cc(OC(F)(F)F)c2)=NO1 (mixture of isomers) [I-372], the inhibition at 120 g/ha (Eclipta prostrata) is reported as 80 to 100%, the “Herbicidal activities, Alopecurus myosuroides (inhibition rate class)” value (Alopecurus myosuroides; Dosage 240 g a.i./ha) is reported as “A (A indicates that the inhibition rate was greater than or equal to 80% to 100%)” and the inhibition at 120 g/ha (Digitaria sanguinalis) is reported as 80 to 100%. For the same compound, the inhibition at 120 g/ha (Cyperus iria) was 80 to 100%, the “Herbicidal activities, Alopecurus japonicus (inhibition rate class)” value (Alopecurus japonicus; Dosage 240 g a.i./ha) was “A (A indicates that the inhibition rate was greater than or equal to 80% to 100%)” and the “Herbicidal activities, Eleusine indica (inhibition rate class)” value (Eleusine indica; Dosage 240 g a.i./ha) was “A (A indicates that the inhibition rate was greater than or equal to 80% to 100%)”. The “Herbicidal activities, Leptochloa chinensis (inhibition rate class)” value (Leptochloa chinensis; Dosage 240 g a.i./ha) was “A (A indicates that the inhibition rate was greater than or equal to 80% to 100%)”, the inhibition at 120 g/ha (Aegilops tauschii) was 80 to 100% and the “Herbicidal activities, Lolium multiflorum (inhibition rate class)” value (Lolium multiflorum; Dosage 240 g a.i./ha) was “A (A indicates that the inhibition rate was greater than or equal to 80% to 100%)”.

For C=CC1(C(=O)N[C@H]2CO[C@@H](C(=O)OC)C2)CC(c2cc(Cl)cc(OC(F)F)c2)=NO1 (mixture of isomers) [I-373], the inhibition at 120 g/ha (Eclipta prostrata) was 80 to 100%, the “Herbicidal activities, Alopecurus myosuroides (inhibition rate class)” value (Alopecurus myosuroides; Dosage 240 g a.i./ha) was “A (A indicates that the inhibition rate was greater than or equal to 80% to 100%)” and the inhibition at 120 g/ha (Digitaria sanguinalis) was 80 to 100%. The inhibition at 120 g/ha (Cyperus iria) was 60 to 80%, the “Herbicidal activities, Alopecurus japonicus (inhibition rate class)” value (Alopecurus japonicus; Dosage 240 g a.i./ha) was “A (A indicates that the inhibition rate was greater than or equal to 80% to 100%)” and the “Herbicidal activities, Eleusine indica (inhibition rate class)” value (Eleusine indica; Dosage 240 g a.i./ha) was “B (B indicates that the inhibition rate was greater than or equal to 60% to less than 80%)”. The “Herbicidal activities, Leptochloa chinensis (inhibition rate class)” value (Leptochloa chinensis; Dosage 240 g a.i./ha) was “A (A indicates that the inhibition rate was greater than or equal to 80% to 100%)”, the inhibition at 120 g/ha (Aegilops tauschii) was 60 to 80% and the “Herbicidal activities, Lolium multiflorum (inhibition rate class)” value (Lolium multiflorum; Dosage 240 g a.i./ha) was “A (A indicates that the inhibition rate was greater than or equal to 80% to 100%)”.

C=C[C@]1(C(=O)N[C@H]2C=C[C@@H](C(=O)OCC)C2)CC(c2cc(F)cc(C(F)(F)F)c2)=NO1 [I-429] was tested, and the inhibition at 60 g/ha (Eclipta prostrata) was 60 to 80%, the “Herbicidal activities, Alopecurus myosuroides (inhibition rate class)” value (Alopecurus myosuroides; Dosage 120 g a.i./ha) was “A (A indicates that the inhibition rate was greater than or equal to 80% to 100%)” and the inhibition at 60 g/ha (Digitaria sanguinalis) was 60 to 80%. For the same compound, the inhibition at 60 g/ha (Cyperus iria) was 60 to 80%, the “Herbicidal activities, Alopecurus japonicus (inhibition rate class)” value (Alopecurus japonicus; Dosage 120 g a.i./ha) was “A (A indicates that the inhibition rate was greater than or equal to 80% to 100%)” and the “Herbicidal activities, Eleusine indica (inhibition rate class)” value (Eleusine indica; Dosage 120 g a.i./ha) was “A (A indicates that the inhibition rate was greater than or equal to 80% to 100%)”. The “Herbicidal activities, Leptochloa chinensis (inhibition rate class)” value (Leptochloa chinensis; Dosage 120 g a.i./ha) was “A (A indicates that the inhibition rate was greater than or equal to 80% to 100%)”, the inhibition at 60 g/ha (Aegilops tauschii) was 60 to 80% and the “Herbicidal activities, Lolium multiflorum (inhibition rate class)” value (Lolium multiflorum; Dosage 120 g a.i./ha) was “A (A indicates that the inhibition rate was greater than or equal to 80% to 100%)”.

C=C[C@]1(C(=O)N[C@H]2C=C[C@@H](C(=O)OC(C)C)C2)CC(c2cc(F)cc(OC(F)(F)F)c2)=NO1 [I-463] was tested, and the inhibition at 60 g/ha (Eclipta prostrata) was 60 to 80%, the “Herbicidal activity (inhibition rate class), Alopecurus myosuroides” value (Alopecurus myosuroides; Dosage 120 g a.i./ha) was “A (A indicates that the inhibition rate was greater than or equal to 80% to 100%)” and the inhibition at 60 g/ha (Digitaria sanguinalis) was 60 to 80%. The inhibition at 60 g/ha (Cyperus iria) was 60 to 80%, the “Herbicidal activity (inhibition rate class), Alopecurus japonicus” value (Alopecurus japonicus; Dosage 120 g a.i./ha) was “A (A indicates that the inhibition rate was greater than or equal to 80% to 100%)” and the “Herbicidal activity (inhibition rate class), Eleusine indica” value (Eleusine indica; Dosage 120 g a.i./ha) was “A (A indicates that the inhibition rate was greater than or equal to 80% to 100%)”. For the same compound, the “Herbicidal activity (inhibition rate class), Leptochloa chinensis” value (Leptochloa chinensis; Dosage 120 g a.i./ha) was “A (A indicates that the inhibition rate was greater than or equal to 80% to 100%)”, the inhibition at 60 g/ha (Aegilops tauschii) was 60 to 80% and the “Herbicidal activity (inhibition rate class), Lolium multiflorum” value (Lolium multiflorum; Dosage 120 g a.i./ha) was “A (A indicates that the inhibition rate was greater than or equal to 80% to 100%)”.

With CC1(C(=O)N[C@H]2C=C[C@@H](C(=O)O)C2)CC(c2cc(Cl)cc(OC(F)(F)F)c2)=NO1 (stereo partly drawn) [I-485] the inhibition at 120 g/ha (Eclipta prostrata) was 80 to 100%, the “Herbicidal activity (inhibition rate class), Alopecurus myosuroides” value (Alopecurus myosuroides; Dosage 240 g a.i./ha) was “A (A indicates that the inhibition rate was greater than or equal to 80% to 100%)” and the inhibition at 120 g/ha (Digitaria sanguinalis) was 60 to 80%. For the same compound, the inhibition at 120 g/ha (Cyperus iria) was 80 to 100%, the “Herbicidal activity (inhibition rate class), Alopecurus japonicus” value (Alopecurus japonicus; Dosage 240 g a.i./ha) was “A (A indicates that the inhibition rate was greater than or equal to 80% to 100%)” and the “Herbicidal activity (inhibition rate class), Eleusine indica” value (Eleusine indica; Dosage 240 g a.i./ha) was “A (A indicates that the inhibition rate was greater than or equal to 80% to 100%)”. The “Herbicidal activity (inhibition rate class), Leptochloa chinensis” value (Leptochloa chinensis; Dosage 240 g a.i./ha) was “A (A indicates that the inhibition rate was greater than or equal to 80% to 100%)”, the inhibition at 120 g/ha (Aegilops tauschii) was 80 to 100% and the “Herbicidal activity (inhibition rate class), Lolium multiflorum” value (Lolium multiflorum; Dosage 240 g a.i./ha) was “A (A indicates that the inhibition rate was greater than or equal to 80% to 100%)”.

In the case of COC(=O)[C@@H]1C=C[C@H](NC(=O)C2(C)CC(c3cc(Cl)cc(OC(F)(F)F)c3)=NO2)C1 (stereo partly drawn) [I-486], the inhibition at 120 g/ha (Eclipta prostrata) is reported as 80 to 100%, the “Herbicidal activity (inhibition rate class), Alopecurus myosuroides” value (Alopecurus myosuroides; Dosage 240 g a.i./ha) is reported as “A (A indicates that the inhibition rate was greater than or equal to 80% to 100%)” and the inhibition at 120 g/ha (Digitaria sanguinalis) is reported as 60 to 80%. The inhibition at 120 g/ha (Cyperus iria) was 80 to 100%, the “Herbicidal activity (inhibition rate class), Alopecurus japonicus” value (Alopecurus japonicus; Dosage 240 g a.i./ha) was “A (A indicates that the inhibition rate was greater than or equal to 80% to 100%)” and the “Herbicidal activity (inhibition rate class), Eleusine indica” value (Eleusine indica; Dosage 240 g a.i./ha) was “A (A indicates that the inhibition rate was greater than or equal to 80% to 100%)”. For the same compound, the “Herbicidal activity (inhibition rate class), Leptochloa chinensis” value (Leptochloa chinensis; Dosage 240 g a.i./ha) was “A (A indicates that the inhibition rate was greater than or equal to 80% to 100%)”, the inhibition at 120 g/ha (Aegilops tauschii) was 80 to 100% and the “Herbicidal activity (inhibition rate class), Lolium multiflorum” value (Lolium multiflorum; Dosage 240 g a.i./ha) was “A (A indicates that the inhibition rate was greater than or equal to 80% to 100%)”.

From patent EP4722201A1, “3-PHENYLISOXAZOLINE-5-CARBOXAMIDE COMPOUND, AND PREPARATION METHOD THEREFOR, HERBICIDAL COMPOSITION THEREOF AND USE THEREOF” (Jiangsu Flag Chemical Industry Co., Ltd, priority 2023, dated 2024)
